Earlier results in US10603401B2, “Dressing system” (Edixomed Limited, priority 2015, dated 2020).

Settings: healthy 70 kg-adult

Row | Compound | Generally accepted safe dosage for topical anaesthesia [mg]
1 | COC(=O)[C@H]1[C@@H](OC(=O)c2ccccc2)C[C@@H]2CC[C@H]1N2C [cocaine] | 200
2 | CCN(CC)CC(=O)Nc1c(C)cccc1C [lidocaine] | 750
3 | CCCCNc1ccc(C(=O)OCCN(C)C)cc1 [tetracaine] | 50
